Results reported in US20190030009A1, “COMPOUNDS AND COMPOSITIONS FOR THE TREATMENT OF CRYPTOSPORIDIOSIS” (Novartis AG, priority 2016, published 2019).

What was measured:
[1] = Cytotoxicity against HepG2; type: cell-based; conditions: human, HepG2 cells (ATCC HB-8065), 5 days exposure
Procedure: Cytotoxicity against HepG2 (ATCC# HB-8065), a human liver cancer cell line, was determined as previously described earlier (Manjunatha et al., 2015). Briefly, cells were seeded at a density of 10^5 cells per well, incubated at 37° C. for 24 h and exposed to two-fold serially-diluted compounds for 5 days. Cell viability was monitored using the Cell Proliferation Kit II (Invitrogen). The cytotoxicity values of selected compounds are reported in the fifth column [HepG2 CC50 (μM)] of Table II.

Cryptosporidium parvum = assay: Cytopathic effect (CPE) based assay, C. parvum infected HCT-8 cells; conditions: HCT-8 host cell viability (CellTiter-Glo), 48 hours treatment, read-out: Cp CPE EC50
Procedure: Human ileocecal colorectal adenocarcinoma cells (HCT-8 [HRT-18] ATCC, CCL-34) were maintained in T-175 flasks (Corning, 431080) in complete growth medium (RPMI-1640 medium (Gibco, 11875) supplemented with 10% heat-inactivated horse serum (Gibco, 26050), 1×MEM non-essential amino acids (Gibco, 11140), 10 mM HEPES (Gibco, 15630), 100 units/mL penicillin, and 100 units/mL streptomycin) at 37° C. and 5% CO2 in a humidified incubator. Cultures were passaged twice weekly using 10 mL of 1×Phosphate-Buffered Saline (PBS) without Ca^2+ and Mg^2+ (Gibco, 20012) for washing and 3-5 mL per T-175 flask of TrypLE Express Enzyme (Gibco, 12604) for dissociation of adherent cells.
Cryptosporidium parvum oocysts purchased from the Sterling Laboratory, University of Arizona (Iowa isolate) were purified from infected calf feces using discontinuous sucrose and cesium chloride centrifugation gradients and stored in PBS solution containing 0.01% Tween 20, 100 units/mL penicillin and 100 units/mL gentamicin.
Excystation and infection protocols were developed following established methods with some modifications (Gut & Nelson, 1999, Upton et aL, 1995, Bessoff et aL, 2013). Briefly, oocysts were primed in 1 mL of 10 mM hydrochloric acid in 1× Hank's Balanced Salt Solution (HBSS) (Gibco, 14025) for 10 minutes with agitation at 1000 rpm, 37° C. on an Eppendorf thermomixer, then washed twice with 1 mL of room temperature non-acidic 1× HBSS by centrifugation at 13,000 rpm for 3 minutes at 25° C. Primed oocysts were further excysted at a concentration of 1×10^6 oocysts/μL in parasite infection medium consisting of a pre-warmed and pre-gassed 1:1 formulation of Leibovitz's L-15 medium (Gibco, 11415) and UltraCULTURE medium (Lonza, 12-725F) supplemented with 2 mM sodium taurocholate (Sigma, 86339-1), 10% heat-inactivated horse serum, and 200 μM L-ascorbic acid (Sigma, 95210) at 25° C. for 10 minutes. HCT-8 monolayer cells were infected with excysted cryptosporidium at a specified multiplicity of infection (MOI). All dilutions for subsequent assays were performed in parasite infection medium without sodium taurocholate. Pre-excysted oocysts were enumerated microscopically using a C-Chip disposable hemocytometer (NanoEnTek, DHC-N01).
Compound powders were dissolved in neat DMSO (Fisher, D4121) to 10 mM and stored at 4° C. prior to dilution into source plates. Dilutions were carried out using a Microlab STAR liquid handler (Hamilton) to obtain compound source plates containing the ten-point or eight-point three fold dilutions starting from 10 mM in duplicates. Source plates were stored at 4° C. prior to spotting into assay plates. Before administration, all compound source plates were equilibrated to room temperature. A specified volume of compounds from source plate were spotted to assay plate using an Echo Acoustic liquid handler (LABCYTE, 550) so that the final DMSO concentration was less than 0.5%. Each assay plate a specified number of DMSO-treated negative control wells and a well-studied potent active compound at 100 nM as positive control. As a quality control, all positive and negative-control wells were used to calculate a Z′-value and signal to noise ratio (S:N) for each plate.
Cryptosporidium spp are obligate-intracellular parasites that infect intestinal epithelial cells and the host cell is killed upon parasite egress. […] The loss of epithelial cells is due to both rapid parasite invasion/multiplication/egress and also pro-inflammatory immune response (Adams et al., 1994, Griffiths et al., 1994). We have observed a consistent cytopathic effect (CPE) in HCT-8 cells with C. spp infection the loss of viability of the host cells using CellTiter-Glo reagent.
Confluent HCT-8 cells in T-175 flasks were directly infected with excysted oocysts at an MOI (host to parasite) of 1:2 for C. parvum and 1:4 for C. hominis. The number of host-cells is determined using a NucleoCounter (Chemometec, NC-100) in a control flask. […]

| Structure (SMILES) | CC50 at 5 days [1] | EC50 (Cryptosporidium parvum) |
| --- | --- | --- |
| CNC(=O)c1ccc(-c2cnn3ccc(C(=O)N(CCO)c4ccc(C#N)cc4)cc23)cc1 [Example 110] | 23.8 µM | > 20 µM |
| CN(C)C(=O)c1cc(-c2cnn3ccc(C(=O)N(C)c4ccc(C#N)cn4)cc23)cnc1N [Example 87] | > 50 µM | 0.415 µM |
| CNC(=O)c1ccc(-c2cnn3ccc(C(=O)N(c4ccc(C(F)(F)F)cn4)C4CCC4)cc23)cn1 [Example 161] | 1.22 µM | 0.775 µM |
| CNC(=O)c1ccc(-c2cnn3ccc(C(=O)N(c4ccc(F)c(F)c4)C4CC4)cc23)cc1 [Example 130] | > 50 µM | 0.235 µM |
| CCN(C(=O)c1ccn2ncc(-c3ccc(C(=O)NC)nc3)c2c1)c1ccc(C(F)(F)F)cn1 [Example 157] | 8.96 µM | 0.295 µM |
| CN(C(=O)c1ccn2ncc(-c3ccc4c(cnn4C)c3)c2c1)c1ccc(C#N)cc1 [Example 17] | 2.51 µM | 0.058 µM |
| CNC(=O)c1ccc(-c2cnn3ccc(C(=O)N(c4ccc(F)cn4)C4CC4)cc23)cc1 [Example 125] | 25.5 µM | 0.709 µM |
| CNC(=O)c1ccc(-c2cnn3ccc(C(=O)N(C)c4ccc(OC)nc4)cc23)cc1 [Example 122] | 15.8 µM | > 20 µM |
| CNC(=O)c1ccc(-c2cnn3ccc(C(=O)N(c4ccc(C(F)(F)F)cn4)C(C)C)cc23)cn1 [Example 152] | 14.9 µM | 0.456 µM |
| CN(C(=O)c1ccn2ncc(-c3ccc(N)nc3)c2c1)c1ccc(C#N)cc1 [Example 41] | 24.1 µM | 0.097 µM |
| CNC(=O)c1ccc(-c2cnn3ccc(C(=O)N(c4ccc(C(N)=O)cn4)C4CC4)cc23)cc1 [Example 129] | > 50 µM | > 20 µM |
| CNC(=O)c1ccc(-c2cnn3ccc(C(=O)N(c4ccc(C#N)cn4)C4CCC4)cc23)cn1 [Example 144] | 7.69 µM | 1.79 µM |
| CNC(=O)c1ccc(-c2cnn3ccc(N(C(=O)c4ccc(C#N)cn4)C4CC4)cc23)cc1 [Example 147] | 32.7 µM | > 20 µM |
| N#Cc1ccc(N(C(=O)c2ccn3ncc(-c4ccc(C(N)=O)nc4)c3c2)C2CC2)cc1 [Example 138] | 8.1 µM | 0.49 µM |
| CNC(=O)c1ccc(-c2cnn3ccc(C(=O)N(c4ccc(C#N)cc4)C4CC4)cc23)cn1 [Example 137] | 2.19 µM | 0.35 µM |
| CNC(=O)c1ccc(-c2cnn3ccc(C(=O)N(c4ccc(C#N)cn4)C4CC4)cc23)cc1 [Example 93] | 28.1 µM | 0.152 µM |
| CNC(=O)c1ccc(-c2cnn3ccc(S(=O)(=O)N(C)c4ccc(C#N)cn4)cc23)cc1 [Example 163] | 8.48 µM | 0.197 µM |
| N#Cc1ccc(N(C(=O)c2ccn3ncc(-c4ccc(C(N)=O)cc4)c3c2)C2CC2)cc1 [Example 134] | 7.24 µM | 0.042 µM |
| CN(C(=O)c1ccn2ncc(-c3ccc(C(N)=O)cc3)c2c1)c1ccc(F)cc1 [Example 20] | 5.42 µM | 0.105 µM |
| CNC(=O)c1ccc(-c2cnn3ccc(C(=O)N(c4ccc(C#N)cc4)C4CC4)cc23)cc1 [Example 118] | 5.9 µM | 0.026 µM |
| CNC(=O)c1ccc(-c2cnn3ccc(C(=O)N(C)c4ccc(Cl)cc4)cc23)cc1 [Example 99] | 6.51 µM | 0.018 µM |
| CNC(=O)c1ccc(-c2cnn3ccc(C(=O)N(c4ccc(C(F)(F)F)cn4)C4CC4)cc23)cc1 [Example 132] | 17.3 µM | 0.089 µM |
| CN(C(=O)c1ccn2ncc(-c3cnc(N)c(C#N)c3)c2c1)c1ccc(C#N)cn1 [Example 85] | 30.4 µM | 0.639 µM |

| Structure (SMILES) | CC50 at 5 days [1] | EC50 (Cryptosporidium parvum) |
| --- | --- | --- |
| CCN(C(=O)c1ccn2ncc(-c3ccc(S(C)(=O)=O)cc3)c2c1)c1ccc(C#N)cn1 [Example 158] | 23 µM | 3.75 µM |
| CN(C(=O)c1ccn2ncc(-c3ccnc(N)c3)c2c1)c1ccc(C#N)cn1 [Example 108] | 14.2 µM | 4.94 µM |
| CC1COc2cc(F)ccc2N1C(=O)c1ccn2ncc(-c3ccc(C(N)=O)cc3)c2c1 (stereo not drawn) [Example 72] | 5.42 µM | 1.4 µM |
| CNC(=O)c1ccc(-c2cnn3ccc(C(=O)N(c4ccc(C#N)cc4)C4CC4)cc23)nc1 [Example 141] | 20.8 µM | 0.344 µM |
| CN(C(=O)c1ccc(C#N)cc1)c1ccn2ncc(-c3ccc(C(F)(F)F)cc3)c2c1 [Example 28] | 9.9 µM | 2.82 µM |
| CN(C(=O)c1ccn2ncc(-c3ccc(C(N)=O)cc3)c2c1)C1CCC(C#N)CC1 (stereo not drawn) [Example 82] | > 50 µM | > 20 µM |
| CNC(=O)c1ccc(-c2cnn3ccc(C(=O)N(c4ccc(C#N)cc4)C4CCC4)cc23)cn1 [Example 145] | 16.8 µM | 0.417 µM |
| CNC(=O)c1ccc(-c2cnn3ccc(C(=O)N(c4ccc(F)cn4)C(C)C)cc23)cn1 [Example 156] | > 50 µM | 15.6 µM |
| CNC(=O)c1ccc(-c2cnn3ccc(C(=O)N(C)c4ccc(C#N)cn4)cc23)cc1 [Example 75] | 19.7 µM | 0.066 µM |
| CN(C(=O)c1ccn2ncc(-c3cnc(Cl)c(N)c3)c2c1)c1ccc(C#N)cn1 [Example 98] | 10.2 µM | 2.21 µM |
| NC(=O)c1ccc(-c2cnn3ccc(C(=O)N(c4ccc(F)c(F)c4)C4CC4)cc23)cc1 [Example 135] | 31.1 µM | 0.279 µM |
| CCN(C(=O)c1ccn2ncc(-c3ccc(C(=O)NC)nc3)c2c1)c1ccc(F)cn1 [Example 159] | 9.81 µM | 5.37 µM |
| CN(C(=O)c1ccn2ncc(-c3ccc(C(=O)NCCO)cc3)c2c1)c1ccc(C#N)cn1 [Example 102] | 38.5 µM | 0.399 µM |
| CNC(=O)c1ccc(-c2cnn3ccc(C(=O)N(c4ccc(C)cn4)C4CC4)cc23)cc1 [Example 136] | 6.32 µM | 0.43 µM |
| NC(=O)c1ccc(-c2cnn3ccc(C(=O)N4CCOc5cc(F)ccc54)cc23)cc1 [Example 71] | 1.82 µM | 0.571 µM |
| N#Cc1ccc(N(C(=O)c2ccn3ncc(-c4ccc(C(N)=O)cn4)c3c2)C2CC2)cc1 [Example 142] | 18.3 µM | 0.379 µM |
| N#Cc1ccc(N(C(=O)c2ccn3ncc(-c4ccc(C(N)=O)cn4)c3c2)C2CC2)nc1 [Example 139] | 16.7 µM | 2.07 µM |
| Cc1ccc(N(C)C(C)c2ccn3ncc(-c4ccc(C(N)=O)cc4)c3c2)nc1 (stereo not drawn) [Example 65] | 2.28 µM | 5.12 µM |
| CNC(=O)c1ccc(-c2cnn3ccc(C(=O)N(c4ccc(C#N)cn4)C(C)C)cc23)nc1 [Example 154] | 45.7 µM | 0.964 µM |
| CNC(=O)c1ccc(-c2cnn3ccc(C(=O)N(c4ccc(C#N)cn4)C4CC4)cc23)nc1 [Example 133] | 20.9 µM | 2.18 µM |
| CNC(=O)c1ccc(-c2cnn3ccc(C(=O)N(C)c4ccc(F)cc4)cc23)cc1 [Example 64] | 4.84 µM | 0.143 µM |
| CN(C(=O)c1ccn2ncc(-c3cnc(N)nc3)c2c1)c1ccc(C#N)cc1 [Example 83] | > 50 µM | 0.487 µM |
